Patent publication US20070099970A1, “Immunomodulatory compounds that target and inhibit the pY'binding site of tyrosene kinase p56 LCK SH2 domain” (priority 2005, published 2007)

Target: T1, recombinant GST Lck SH2 domain fusion protein (Homo sapiens, UniProt P06239)
T1 construct: recombinant GST Lck SH2 domain fusion protein; made in house
Test: solid phase EIA inhibition assay: binding of GST Lck SH2 domain to CD3 ζ chain ITAM 2 phosphopeptide
Settings: assay example 1, stronger inhibitors >60% inhibition, weaker inhibitors <60% inhibition
Description: Compounds of the invention were obtained from commercial sources and were tested using a high-throughput Enzyme Immunoassay (EIA) developed to rapidly quantify inhibition.
Biological activities were measured using said EIA assay using 96 well medium binding EIA plates (Costar). Wells were coated with 100 μl of human CD3 ζ chain ITAM 2 phosphopeptide conjugated to BSA (˜10 pmole peptide equivalent) in PBS overnight at 4° C. and blocked with 300 μl of PBS containing 5% (wt/vol) powdered skim milk for 1 h at 37° C. After washing with PBS containing 1% Tween 20 (PBST), 3 times, 100 μl of precalibrated bacterial lysate containing recombinant GST Lck SH2 domain fusion protein was added in the presence or absence of test compounds and incubated for 1 h at room temperature. After 3 extensive washings with PBST, 100 μl of PBS containing HRP-conjugated rabbit anti-GST antibody was added and incubated for 1 h. After extensive washing with PBST, 100 μl of TMB substrate was added and absorbance at 620 nm was measured using a multiwell EIA plate reader (Anthos HTIII). The percent inhibition (% inhibition) was calculated based on the optical density (OD) using the formula: % inhibition=100−(ΔOD of test well/ΔOD of positive wells)×100, where ΔOD was calculated by subtracting background OD (average OD of negative wells) from the test as well as positive control wells. Error analysis was performed on two or more measurements.

T1 sequence (P06239 127-224 limits assumed): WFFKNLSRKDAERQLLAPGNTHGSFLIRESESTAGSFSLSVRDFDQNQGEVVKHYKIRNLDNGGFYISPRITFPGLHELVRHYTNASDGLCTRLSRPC

Row | SMILES | inhibitory activity, in words
1 | Cc1ccc(NC(=O)CN2C(=O)S/C(=C\c3ccccc3O)C2=O)cc1 [276-11] | lowest activity among the highly active compounds
2 | Cc1ccc(NC(=O)CN2C(=O)S/C(=C\c3cccc(O)c3)C2=O)cc1 [276-14] | lower activity
3 | Cc1ccc(NC(=O)CN2C(=O)S/C(=C/c3ccc(-c4ccc(Cl)c(C(=O)O)c4)o3)C2=O)cc1 [276-13] | stronger inhibitors
4 | Cc1ccc(NC(=O)CN2C(=O)S/C(=C\c3ccc(O)cc3)C2=O)cc1 [276-15] | lower activity
5 | COC(=O)c1ccc(-c2ccc(/C=C3\SC(=O)N(CC(=O)Nc4ccc(C)cc4)C3=O)o2)c(C)c1 [276-8] | weak inhibitors
6 | Cc1cccc(NC(=O)CN2C(=O)S/C(=C\c3ccc(O)cc3)C2=O)c1 [276-6] | lower activity
